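Cells were grown in 96-well plates and exposed to each compound for 48 hours at five concentrations; endpoints were interpolated linearly between bracketing concentrations, or set to the highest concentration if not reached. TGI denotes the concentration required for complete inhibition of growth.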
Experiments:
Assay in all cases: NCI tumour cell line growth inhibition, 48 h
MDA-MB-435 = tested on: MDA-MB-435
MCF7 breast = tested on: MCF7 breast
786-0 renal = tested on: 786-0 renal
U251 CNS = tested on: U251 CNS
MDA-MB-231 breast = tested on: MDA-MB-231 breast
COLO 205 colon = tested on: COLO 205 colon
SF-539 CNS = tested on: SF-539 CNS
ACHN renal = tested on: ACHN renal
UACC-62 melanoma = tested on: UACC-62 melanoma
DU-145 prostate = tested on: DU-145 prostate
SK-OV-3 ovarian = tested on: SK-OV-3 ovarian
CCRF-CEM leukemia = tested on: CCRF-CEM leukemia
T-47D breast = tested on: T-47D breast
SNB-75 CNS = tested on: SNB-75 CNS
HS 578T breast = tested on: HS 578T breast
TK-10 renal = tested on: TK-10 renal
SK-MEL-2 melanoma = tested on: SK-MEL-2 melanoma
SK-MEL-5 melanoma = tested on: SK-MEL-5 melanoma
SW-620 colon = tested on: SW-620 colon
SR leukemia = tested on: SR leukemia
EKVX NSCLC = tested on: EKVX NSCLC
OVCAR-5 ovarian = tested on: OVCAR-5 ovarian
HOP-62 NSCLC = tested on: HOP-62 NSCLC
NCI/ADR-RES ovarian = tested on: NCI/ADR-RES ovarian
UO-31 renal = tested on: UO-31 renal
MOLT-4 leukemia = tested on: MOLT-4 leukemia
NCI-H226 lung = tested on: NCI-H226 lung
A549 NSCLC = tested on: A549 NSCLC
K-562 leukemia = tested on: K-562 leukemia
PC-3 prostate = tested on: PC-3 prostate
MDA-N = tested on: MDA-N
KM12 colon = tested on: KM12 colon
HCT-116 colon = tested on: HCT-116 colon
SF-268 CNS = tested on: SF-268 CNS
UACC-257 melanoma = tested on: UACC-257 melanoma
RPMI-8226 leukemia = tested on: RPMI-8226 leukemia
RXF 393 renal = tested on: RXF 393 renal
HCC-2998 colon = tested on: HCC-2998 colon
NCI-H460 lung = tested on: NCI-H460 lung
OVCAR-4 ovarian = tested on: OVCAR-4 ovarian
SN12C renal = tested on: SN12C renal
HL-60(TB) leukemia = tested on: HL-60(TB) leukemia
OVCAR-8 ovarian = tested on: OVCAR-8 ovarian
CAKI-1 renal = tested on: CAKI-1 renal
M14 melanoma = tested on: M14 melanoma
SK-MEL-28 melanoma = tested on: SK-MEL-28 melanoma
IGROV1 ovarian = tested on: IGROV1 ovarian
HCT-15 colon = tested on: HCT-15 colon
HT29 colon = tested on: HT29 colon
SNB-19 CNS = tested on: SNB-19 CNS
SF-295 CNS = tested on: SF-295 CNS
NCI-H23 lung = tested on: NCI-H23 lung
A498 renal = tested on: A498 renal
BT-549 breast = tested on: BT-549 breast
NCI-H522 lung = tested on: NCI-H522 lung
MALME-3M melanoma = tested on: MALME-3M melanoma
OVCAR-3 ovarian = tested on: OVCAR-3 ovarian

COc1ccc(C(=O)/C=C/c2ccc(OCCCOc3ccc(/C=C/C(=O)c4ccc(OC)cc4)cc3)cc2)cc1
TGI (MDA-MB-435): > 100 µM
TGI (MCF7 breast): > 100 µM
TGI (786-0 renal): > 100 µM
TGI (U251 CNS): > 100 µM
TGI (MDA-MB-231 breast): > 100 µM
TGI (COLO 205 colon): > 100 µM
TGI (SF-539 CNS): 72.6 µM
TGI (ACHN renal): > 100 µM
TGI (UACC-62 melanoma): > 100 µM
TGI (DU-145 prostate): > 100 µM
TGI (SK-OV-3 ovarian): > 100 µM
TGI (CCRF-CEM leukemia): > 100 µM
TGI (T-47D breast): > 100 µM
TGI (SNB-75 CNS): > 100 µM
TGI (HS 578T breast): > 100 µM
TGI (TK-10 renal): > 100 µM
TGI (SK-MEL-2 melanoma): > 100 µM
TGI (SK-MEL-5 melanoma): > 100 µM
TGI (SW-620 colon): > 100 µM
TGI (SR leukemia): > 100 µM
TGI (EKVX NSCLC): > 100 µM
TGI (OVCAR-5 ovarian): > 100 µM
TGI (HOP-62 NSCLC): > 100 µM
TGI (NCI/ADR-RES ovarian): > 100 µM
TGI (UO-31 renal): > 100 µM
TGI (MOLT-4 leukemia): > 100 µM
TGI (NCI-H226 lung): > 100 µM
TGI (A549 NSCLC): > 100 µM
TGI (K-562 leukemia): > 100 µM
TGI (PC-3 prostate): > 100 µM
TGI (MDA-N): > 100 µM
TGI (KM12 colon): > 100 µM
TGI (HCT-116 colon): > 100 µM
TGI (SF-268 CNS): > 100 µM
TGI (UACC-257 melanoma): > 100 µM
TGI (RPMI-8226 leukemia): > 100 µM
TGI (RXF 393 renal): > 100 µM
TGI (HCC-2998 colon): > 100 µM
TGI (NCI-H460 lung): > 100 µM
TGI (OVCAR-4 ovarian): > 100 µM
TGI (SN12C renal): > 100 µM
TGI (HL-60(TB) leukemia): > 100 µM
TGI (OVCAR-8 ovarian): > 100 µM
TGI (CAKI-1 renal): > 100 µM
TGI (M14 melanoma): > 100 µM
TGI (SK-MEL-28 melanoma): > 100 µM
TGI (IGROV1 ovarian): > 100 µM
TGI (HCT-15 colon): > 100 µM
TGI (HT29 colon): > 100 µM
TGI (SNB-19 CNS): > 100 µM
TGI (SF-295 CNS): > 100 µM

CCC(C)(C)c1ccc(OCCCCNC(=O)c2ccc3ccccc3c2O)c(C(C)(C)CC)c1
TGI (MCF7 breast): > 100 µM
TGI (NCI-H23 lung): > 100 µM
TGI (786-0 renal): 93.5 µM
TGI (U251 CNS): > 100 µM
TGI (A498 renal): > 100 µM
TGI (MDA-MB-231 breast): > 100 µM
TGI (COLO 205 colon): 34.2 µM
TGI (SF-539 CNS): > 100 µM
TGI (ACHN renal): > 100 µM
TGI (UACC-62 melanoma): 92.4 µM
TGI (DU-145 prostate): > 100 µM
TGI (SK-OV-3 ovarian): > 100 µM
TGI (CCRF-CEM leukemia): > 100 µM
TGI (T-47D breast): > 100 µM
TGI (BT-549 breast): 82.5 µM
TGI (SNB-75 CNS): > 100 µM
TGI (NCI-H522 lung): 91.2 µM
TGI (MALME-3M melanoma): > 100 µM
TGI (HS 578T breast): > 100 µM
TGI (TK-10 renal): 80 µM
TGI (SK-MEL-2 melanoma): 62 µM
TGI (SK-MEL-5 melanoma): 71.4 µM
TGI (SW-620 colon): 87 µM
TGI (SR leukemia): > 100 µM
TGI (EKVX NSCLC): 87.9 µM
TGI (OVCAR-5 ovarian): > 100 µM
TGI (HOP-62 NSCLC): > 100 µM
TGI (NCI/ADR-RES ovarian): > 100 µM
TGI (UO-31 renal): > 100 µM
TGI (MOLT-4 leukemia): > 100 µM
TGI (NCI-H226 lung): 44.7 µM
TGI (A549 NSCLC): > 100 µM
TGI (K-562 leukemia): > 100 µM
TGI (PC-3 prostate): 49.7 µM
TGI (MDA-N): > 100 µM
TGI (KM12 colon): > 100 µM
TGI (HCT-116 colon): > 100 µM
TGI (SF-268 CNS): > 100 µM
TGI (UACC-257 melanoma): > 100 µM
TGI (HCC-2998 colon): > 100 µM
TGI (NCI-H460 lung): > 100 µM
TGI (OVCAR-4 ovarian): > 100 µM
TGI (SN12C renal): > 100 µM
TGI (HL-60(TB) leukemia): > 100 µM
TGI (OVCAR-8 ovarian): > 100 µM
TGI (CAKI-1 renal): > 100 µM
TGI (M14 melanoma): > 100 µM
TGI (SK-MEL-28 melanoma): > 100 µM
TGI (IGROV1 ovarian): > 100 µM
TGI (HCT-15 colon): 28.5 µM
TGI (OVCAR-3 ovarian): 73.2 µM
TGI (HT29 colon): > 100 µM
TGI (SNB-19 CNS): > 100 µM
TGI (SF-295 CNS): > 100 µM

From PubChem BioAssay (NCI)
